For 2 compounds, NO production and inhibition results are on record in patent US11452752B2, “Composition for antioxidation, anti-inflammation, or osteoclast differentiation inhibition” (NATURAL ENDOTECH CO., LTD., priority 2017, dated 2022).

Assay [1] relates to nitric oxide (NO) production in RAW264.7 cells. In words: Nitric oxide (NO) production inhibition, GRIESS assay, LPS-stimulated cells. Type of assay: cell-based. The conditions noted are these: 12.5 μM; 500 ng/mL LPS, 24 hours. On the procedure: After the incubation, 100 μL of the supernatant was taken and transferred into a 96-well plate, and 100 μL of GRIESS solution was added, followed by incubation for 10 minutes. Thereafter, the absorbance was measured at 540 nm using a microplate reader to determine the NO production inhibitory effect.
(In general: The Griess reaction detects nitrite, a stable product of nitric oxide.)

The subject of assay [2] is osteoclast differentiation of Raw 264.7 cells. In words: RANKL-induced osteoclast differentiation inhibition (osteoclast count). Particulars: Mus musculus, RAW264.7, 96 h; 10 mM; 50 ng/mL RANKL, 4 days; read-out: osteoclast differentiation inhibitory effect. Type of assay: cell-based. The procedure: The media were removed after the incubation, followed by washing with PBS, and then the cells were fixed and stained using a leukocyte acid phosphatase kit (Sigma). After the staining, the osteoclasts were counted using a microscope, and the osteoclast count in a sample was expressed as a percentage relative to the control.

With `Cc1ccc(-c2cc(C(F)(F)F)nn2-c2ccc(S(N)(=O)=O)cc2)cc1` [celecoxib], in assay [1], the NO production turned out to be 46.7%.

Consider `NCCCC(O)(P(=O)(O)O)P(=O)(O)O` [alendronate], for which the inhibition at 10000 µM in assay [2] is 72.2%.
